# Biological target: Histone deacetylase
# Assay: Inhibition of histone deacetylase (HDAC) activity in HeLa cell nuclear extract
# Format: cell-based, Homo sapiens
row,Structure (SMILES),IC50 [nM]
1,O=C(/C=C/C=C/c1ccc(Cl)cc1)NO,252
2,CC(/C=C/C(=O)O)=C\c1ccc(NS(=O)(=O)c2ccc(Cl)cc2)cc1,> 100000
3,CC(CCC(=O)NO)Cc1ccc(NS(=O)(=O)c2ccc(Cl)cc2)cc1 (configuration not stated),1170
4,CC(/C=C/C(=O)NO)=C\c1ccc(NS(=O)(=O)c2ccccc2)cc1,172
5,CC(/C=C/C(=O)NO)=C\c1ccc(NS(=O)(=O)c2ccc(Cl)cc2)cc1,49
6,CC(/C=C/C(=O)NO)=C\c1ccc(Cl)cc1,302
7,COc1ccc(S(=O)(=O)Nc2ccc(/C=C/C=C/C(=O)NO)cc2)cc1,10400
8,COc1ccc(S(=O)(=O)Nc2ccc(/C=C(C)/C=C/C(=O)NO)cc2)cc1,74
9,CC(/C=C/C(=O)NO)=C\c1ccc(N(C)C)cc1,788
10,CN(C)c1ccc(/C=C/C=C/C(=O)NO)cc1,1700
11,O=C(CCCCc1ccc(Cl)cc1)NO,2580
12,O=C(/C=C/C=C/c1ccccc1)NO,279

# — ChEMBL document CHEMBL1146727, “Stereodefined and polyunsaturated inhibitors of histone deacetylase based on (2E,4E)-5-arylpenta-2,4-dienoic acid hydroxyamides” (Bioorg Med Chem Lett, 2004)
